Laboratory results reported in patent US20210308196A1, “COMPOSITIONS AND METHODS TO PROMOTE HOST DEFENSE AND STIMULATE, EXPAND, AND/OR RESET T CELL REPERTOIRES” (EVOLVE BIOSYSTEMS, INC., priority 2018, published 2021).

Legend:
[1] = system: fecal bacteria; experiment: Fecal microscopy (Gram-stained light microscopy, SEM); format: in vivo, human
Protocol: Fecal Microscopy. All samples were fixed by adding equal amount of 5% glutaraldehyde in 0.2 M cacodylate buffer (final concentration 2.5% glutaraldehyde in 0.1 M cacodylate buffer) for 1-2 h before being processed for Gram-stained light microscopy and scanning electron microscopy (SEM). For light microscopy, conventional Gram-stained samples on slides were imaged under an EVOS Auto-FL system using a 60× lens and 2.7× optical zoom, under the same setting of the color camera. Five random fields of images were collected from each sample slide. For SEM, since the samples were previously frozen before fixation, the osmium post-fixation, and critical-point dry procedures were not performed. The fixed samples were dehydrated through an ethanol series and placed on membrane filters. The samples were mounted onto the SEM stubs, aired overnight, and then vacuum-oven dried at 50° C. for >2 h before sputter-coating with a thin layer of chromium using Denton Desk V sputter. Images were collected under various magnifications to capture bacterial morphology using a Hitachi […] field-emission SEM. Microscopy confirmed the high levels of Bifidobacterium in samples from the treatment group.

[2] = system: peanut extract allergy; experiment: Reversal of murine peanut allergy; format: in vivo, mouse; conditions: previously sensitized animals, compared to control mice
Protocol: Germ-free pups are weaned 3 weeks after birth and put on a polysaccharide-free diet. Mice are gavaged with a dysbiotic microbiome of Example 3 at Day 1. Mice receive intragastric gavage of peanut extract on day 1 and day 7 at 5 mg/mouse and then 25 mg/mouse at week 5 with 10 μg of Cholera toxin. Elicitation of reaction is performed at eight to ten weeks using intragastric gavage of 10 mg/mouse food antigen (e.g., peanut extract) with vehicle (PBS). At 10 weeks, mice of the test group are fed B. infantis, while control mice receive vehicle gavage only. All mice have access ad labium to LNnT-infused drinking water for a period of 21 days. The mice are re-challenged with the food antigen via intragastric gavage of 10 mg/mouse peanut extract with vehicle (PBS). Anaphylaxis symptoms are evaluated, and then mice are necropsied. Plasma samples are collected for evaluation of histamine and IgE concentrations. White blood cells are isolated for PBMC characterization and evaluation of regulatory T cell population expansion using flow cytometry specific for CD4, CD25, Foxp3, Helios, Neuropilin, CD8, CD44, CD62L, IFNgamma, IL-17.

[3] = system: infant gut microbiome; experiment: Infant fecal microbiome analysis (16S rDNA sequencing, B. infantis qPCR); format: in vivo, human
Protocol: Infant fecal samples were collected throughout the 60-day trial. Mothers collected their own fecal and breastmilk samples as well as fecal samples from their infants. They filled out weekly, biweekly and monthly health and diet questionnaires, as well as daily logs about their infant feeding and gastrointestinal tolerability (GI). Safety and tolerability were determined from maternal reports of infants' feeding, stooling frequency, and consistency (using a modified Amsterdam infant stool scale—watery, soft, formed, hard; Bekkali et al. 2009), as well as GI symptoms and health outcomes. Individual fecal samples were subjected to full microbiome analysis using Illumina sequencing based on 16S rDNA and qPCR with primers designed specifically for B. longum subsp. infantis strain.
Evaluation of EVC001 colonization. As previously described in Frese et al. (2017) (mSphere 2(6): e00501-00517) colonization is measured at baseline and post-feeding by quantitative PCR using specific primers for B. infantis. Colonization is considered when B. infantis abundance is greater than 10^5, but more preferably greater than 10^7 or 10^8 CFU/ug DNA. Colonization may also be described as a significant expansion of the total relative contribution of Bifidobacteriaceae to the infant gut microbiome.
Bacterial DNA Methods. The relative abundance of the stool bacteria at the phylum, class, order, family, and genus level was characterized by performing a sequence analysis of the V4 segment of the 16S rRNA gene using QIIME v1.9.1.

[4] = system: peanut extract allergy; experiment: Prevention of murine peanut allergy; format: in vivo, mouse
Excerpt: Germ-free mouse pups are weaned 3-4 weeks after birth and put on a polysaccharide-free diet that is enriched for Vitamin A. As soon as the mouse pups are weaned, they are gavaged with a dysbiotic (no Bifidobacterium sp. and high proteobacteria) human infant microbiome at Day 1 of the experiment. The mice are divided into 4 groups: control, control plus LNnT, B. infantis, and B. infantis plus LNnT. Mice are given the composition for 21 days. All Groups receive B. infantis or placebo every 3 days by gavage. The LNnT or placebo is added to the drinking water for 21 days. Mice receive intragastric gavage of peanut extract on weekly at 5 mg/mouse for sensitization and then 25 mg/mouse at week 5 for challenge with 10 μg of Cholera toxin to elicit anaphylaxis. Control animals receive intragastric gavage with vehicle only. Anaphylaxis symptoms are evaluated, and then mice are necropsied. Plasma samples are collected for evaluation of histamine and IgE concentrations. White blood cells are isolated for PBMC characterization and evaluation of regulatory T cell population expansion using flow cytometry specific for CD4, CD25, Foxp3, Helios, Neuropilin, CD8, CD44, CD62L, IFNgamma, IL-17, and B cell populations, including Bregs and plasma cells using the following markers: IgM, CD5, CD24, CD19, CD19, CD20, CD34, CD38, CD45R, CD78, CD80, and CD138.

[5] = system: TNF; experiment: Fecal TNF expression; format: in vivo, human; conditions: treatment group
[6] = infant feces, Day 6 (Baseline), before supplementation starts on Day 7

Bifidobacterium longum subsp. infantis EVC001 [B. infantis EVC001]
Bifidobacterium in fecal samples by microscopy ([1]; samples from the treatment group): high levels | Gram staining of fecal smears ([1]; three fecal samples, Day 40): overwhelmingly contained Gram-positive bacteria | Bacterial morphology in fecal samples ([1]; three fecal samples, Day 40, multiple fields of view): uniform morphology of rod-shaped bacteria | Inflammatory responses to the food antigen [2]: reduces | Levels of proteobacteria and enterococci ([3]; colonized infants versus unsupplemented): much lower levels | B. infantis colonization level of infant gut ([3]; continued after supplementation ended (Day 28) while breast milk consumed): higher than 10^10 cfu/g feces | Bacteroidaceae % Relative Abundance [3, 6]: 0.1040% | Bifidobacteriaceae % Relative Abundance [3, 6]: 0.1472% | Clostridiaceae % Relative Abundance [3, 6]: 0.0874% | Enterobacteriaceae % Relative Abundance [3, 6]: 0.2743% | Enterococcaceae % Relative Abundance [3, 6]: 0.0539% | Lachnospiraceae % Relative Abundance [3, 6]: 0.0197% | Other families % Relative Abundance [3, 6]: 0.1357% | Staphylococcaceae % Relative Abundance [3, 6]: 0.0543% | Streptococcaceae % Relative Abundance [3, 6]: 0.1169% | Veillonellaceae % Relative Abundance [3, 6]: 0.0065% | Bifidobacteriaceae % Relative Abundance ([3]; infant feces, Day 40): significantly higher | Enterococcaceae % Relative Abundance ([3]; infant feces, Day 40): 0.0045% | Lachnospiraceae % Relative Abundance ([3]; infant feces, Day 40): 0.0072% | Other families % Relative Abundance ([3]; infant feces, Day 40): 0.0215% | Staphylococcaceae % Relative Abundance ([3]; infant feces, Day 40): 0.0036% | Streptococcaceae % Relative Abundance ([3]; infant feces, Day 40): 0.0291% | Veillonellaceae % Relative Abundance ([3]; infant feces, Day 40): 0.0077% | Bifidobacteriaceae % Relative Abundance ([3]; infant feces, Day 40, listed as EVC001): 0.8712% | Enterobacteriaceae % Relative Abundance ([3]; infant feces, Day 60): 0.0427% | Enterococcaceae % Relative Abundance ([3]; infant feces, Day 60): 0.0082% | Lachnospiraceae % Relative Abundance ([3]; infant feces, Day 60): 0.0081% | Other families % Relative Abundance ([3]; infant feces, Day 60): 0.02443% | Staphylococcaceae % Relative Abundance ([3]; infant feces, Day 60): 0.0039% | Streptococcaceae % Relative Abundance ([3]; infant feces, Day 60): 0.0277% | Veillonellaceae % Relative Abundance ([3]; infant feces, Day 60): 0.0076% | Gut microbiome share of B. longum subsp. infantis ([3]; supplemented infants, on average, regardless of birthing mode): greater than 70% | Inflammatory responses to the food antigen ([4]; compared to control mice): reduce | Anaphylaxis ([4]; peanut extract challenge with Cholera toxin): prevent | Fecal TNF expression [5]: significantly reduced
